The results in this text go back to ChEMBL document CHEMBL1148137, “Multibranched polyunsaturated and very-long-chain fatty acids of freshwater Israeli sponges” (J Nat Prod, 2002).

One series has as its system Artemia salina. As to the kind of experiment: Toxicity to Artemia salina assessed as mortality after 24 hrs. Format: organism-based. Particulars: in vivo.
The test system of a further series is Bacillus subtilis. As to the kind of experiment: Antibacterial activity against Bacillus subtilis CCM 2216 at 50 ug/disk. It is filed as functional. Also on record: unit not given here.
Another series relates to Staphylococcus aureus. As to the kind of experiment: Antibacterial activity against Staphylococcus aureus CCM 2551 at 50 ug/disk. Format: functional. Details: unit not given here. Conditions: read-out: Diameter of inhibition zone.
The test system of the next series is Saccharomyces cerevisiae. As to the kind of experiment: Antifungal activity against Saccharomyces cerevisiae at 50 ug/disk. It is filed as functional.
The next series relates to Escherichia coli. As to the kind of experiment: Antibacterial activity against Escherichia coli at 50 ug/disk. It is filed as functional.
Where [1] appears, read: read-out: Diameter of inhibition zone.

With `CCCCCCCCCC[C@H](C)/C=C(C)/C=C/C(=O)OC`, in the series on Artemia salina, the MLD worked out at 4.9 µg/mL. Besides, the zone of inhibition at 50 µg/disc in the series with Bacillus subtilis (setting [1]) is 81; in the series with Staphylococcus aureus, 56.7; in the series on Saccharomyces cerevisiae (setting [1]) it was 0 mm; in the series on Escherichia coli (setting [1]), 0 mm.

For the compound `C=C(CC/C=C/C=C/CC(C)C)C[C@@H](C)C/C(C)=C/C(=O)OC`, in the series with Artemia salina, the MLD is 1.7 µg/mL. Besides, the zone of inhibition at 50 µg/disc in the series with Bacillus subtilis (setting [1]) worked out at 74.9; in the series with Staphylococcus aureus, 84.1; in the series with Saccharomyces cerevisiae (setting [1]), 0 mm; in the series with Escherichia coli (setting [1]), 0 mm.

Take `CC[C@H](C)/C=C/C(C)=C/C[C@H](C)/C=C/C=C/C(=O)OC`: in the series on Artemia salina, the MLD amounted to 10.2 µg/mL. Moreover, the values for the zone of inhibition at 50 µg/disc in the series on Staphylococcus aureus, with Saccharomyces cerevisiae (setting [1]) and in the series on Escherichia coli (setting [1]) were 49, 0 mm and 0 mm, respectively.

In the case of `C=C/C(C)=C/C[C@H](C)/C=C(C)/C=C(C)\C=C\C=C\C(=O)OC`, in the series with Artemia salina, the MLD is 1.1 µg/mL. Moreover, the zone of inhibition at 50 µg/disc worked out at 89 in the series with Bacillus subtilis (setting [1]), 62.4 in the series with Staphylococcus aureus, 0 mm with Saccharomyces cerevisiae (setting [1]) and 0 mm in the series with Escherichia coli (setting [1]).

Take `CC[C@@H](C)CC/C=C/C(C)=C/[C@H](C)C/C=C/C=C/C(=O)OC`: the MLD with Artemia salina came to 5 µg/mL. For the same compound, the figures for the zone of inhibition at 50 µg/disc with Bacillus subtilis (read-out: IZ), in the series with Saccharomyces cerevisiae (read-out: IZ) and with Escherichia coli (read-out: IZ) were 78.1, 0 mm and 0 mm, respectively.
